According to US20050163849A1 (priority 2003, published 2005):

Assay: Intracolonic ligated model, lower G.I. absorption and bioavailability of iron-transport moiety complexes
Settings: rat, intracolonic bolus into ligated colon, 10 mg iron/rat
Description: Absorption of the complexes is evaluated from blood samples taken from the animal as a function of time after intubation. A rise in the hematocrit level in the blood is indicative of absorption.
A segment of proximal colon is isolated and the colon is flushed of fecal materials. […] The colonic contents are flushed out and the colon is returned to the abdomen of the animal.
At the end of the 4 hour test period, the rats are euthanized with an overdose of pentobarbital. Colonic segments from each rat are excised and opened longitudinally along the anti-mesenteric border. Each segment is observed macroscopically for irritation and any abnormality noted. The excised colons are placed on graph paper and measured to approximate colonic surface area.

In the case of “ferrous laurate [ferrous-laurate complex]”, the “Increased absorption relative to ferrous sulfate (change in hematocrit level)” value is reported as “at least two-fold”.
